# Where two headings read alike, the source gives them in different places.
# Tests used:
# [1] = test system: normal human keratinocyte cells (HaCaT); conditions: cited from earlier work
# [2] = test system: IGR39 human melanoma cells; assay: MTT cell viability assay, IGR39; assay type: cell-based
# Experimental: (§1) The MTT assay was first described as a sensitive, quantitative, and reliable colorimetric assay to measure the viability, proliferation, and activation of cells. Cell viability was assessed at 24 and 72 h of treatment to evaluate cytotoxicity and the effect on cell proliferation of the decavanadate compound, respectively. The concentrations of the decavanadate compound have been determined by weighing the compound in its crystal form and then solubilizing it in distilled water.
# (§2) All cell lines were seeded in 96-well plates (Nunc, Roskilde, Denmark) at a density of 10^4 cells per well and were incubated overnight, before treatment with different concentrations of the decavanadate compound. After 24 or 72 h of treatment, fresh media solution containing MTT at 0.5 mg/mL was added to cells and incubated for 3 h at 37°C. The formed formazan crystals were then dissolved in DMSO, and the absorbance was measured at 560 nm using a BioTek EON Microplate Spectrophotometer (Fisher Scientific). Cell viability was expressed as a percentage of the viable cell number of the untreated cells (control [CTR]).
# (§3) The concentration of the decavanadate compound required for 50% growth inhibition (IC50 value) was estimated as resulting in a 50% decrease in absorbance, compared to the CTR.
# [3] = test system: murine B16-F10 melanoma cells; conditions: cited from earlier work
# [4] = test system: IGR37 human melanoma cells; assay: MTT cell viability assay, IGR37; assay type: cell-based
# Experimental: as §1, §2, §3
# [5] = test system: human SK-MEL-28 melanoma; conditions: cited from earlier work
# [6] = test system: COLO829 melanoma cell; design: method as in PMID 32967177; conditions: read-out: IC50, cell proliferation; cited from earlier work
# [7] = test system: skin papillomas caused by the injection of DMBA and croton oil; design: method as in PMID 28010928; conditions: 5 mg/kg; cited from earlier work
# [8] = test system: A375 human melanoma cell; design: method as in PMID 33132760; conditions: A375, 24 h treatment, cited from earlier work
# [9] = test system: allograft model of B16-F10 cells in mice; design: method as in PMID 29407869, PMID 6722991; conditions: cited from earlier work
# [10] = test system: IGR39 cells; conditions: IGR39 proliferation; read-out: IC50, antiproliferative effect on IGR39; cited from earlier work
# [11] = test system: UACC-62 human melanoma cells; conditions: UACC-62, at 5 μM; cited from earlier work
compound,measurement,setting,value
"N.N.[Cl][Pt][Cl] [Cisplatin, cisplatin]",IC50,"[1]; HaCaT, 24 h",23.9 µM
same,IC50,"[1]; HaCaT, 72 h",23.9 µM
same,IC50,"[1]; keratinocyte cell line, 'was reported', no reference printed in the abstract",23.9 µM
same,IC50,"[2]; IGR39, 24 h treatment",83 µM
same,"IC50, cell viability","[2]; IGR39, 24 h treatment",25 µg/mL
same,IC50,"[2]; IGR39, 72 h treatment",12.5 µM
same,"IC50, cell viability","[2]; IGR39, 72 h treatment",3.8 µg/mL
same,IC50,"[3]; B16-F10, 24 h",19.5 µM
same,IC50,"[3]; B16-F10, 72 h",10 µM
same,IC50,"[4]; IGR37, 24 h treatment",26.5 µM
same,"IC50, cell viability","[4]; IGR37, 24 h treatment",8 µg/mL
same,IC50,"[4]; IGR37, 72 h treatment",3 µM
same,"IC50, cell viability","[4]; IGR37, 72 h treatment",0.9 µg/mL
same,IC50,"[5]; SKMEL28, 24 h",> 12.5 µM
same,IC50,"[5]; SKMEL28, 72 h",9.5 µM
CN(C)c1ccc(O)c2c1C[C@H]1C[C@H]3[C@H](N(C)C)C(O)=C(C(N)=O)C(=O)[C@@]3(O)C(O)=C1C2=O [Minocycline],IC50,[6],13.9 µM
C[C@H]1c2cccc(O)c2C(=O)C2=C(O)[C@]3(O)C(=O)C(C(N)=O)=C(O)[C@@H](N(C)C)[C@@H]3[C@@H](O)[C@@H]21 [doxycycline],IC50,[6],16.2 µM
[O]=[V]([O-])([O-])[O-] [orthovanadate],Incidence of skin papillomas,[7],partially inhibited the incidence of skin papillomas
C[C@@H]1O[C@@H](OC[C@H]2O[C@@H](Oc3c(-c4ccc(O)c(O)c4)oc4cc(O)cc(O)c4c3=O)[C@H](O)[C@@H](O)[C@@H]2O)[C@H](O)[C@H](O)[C@H]1O [rutoside],"IC50, cell viability",[8],about 100 μg/mL
same,IC50,"[8]; read-out: IC50, cell viability",~163 µM
[O]=[V]([O-])([O-])[O-] [vanadate],Tumor size and incidence,[9],significantly decreased tumor size and their incidence
O=S(=O)([O-])[O-].[O]=[V+2] [vanadyl sulfate],Tumor size and incidence,[9],significantly decreased tumor size and their incidence
(C4N2H7)6(C4N2H6)2V10O28,IC50,[10],7 µM
(NH4)4Li2V10O2810H2O,IC50,[10],9.8 µM
Mg(H2O)6(C4N2H7)4V10O28·4H2O,IC50,[10],2 µM
metformin–decavanadate [Metf-V10],Inhibition of proliferation,[11],80%

# — PMC11742080, “Decavanadate Compound Displays In Vitro and In Vivo Antitumor Effect on Melanoma Models” (Bioinorganic Chemistry and Applications, 2025)
